Experimental data reported in patent publication EP0118750A2, “Regeneration of NAD(P) cofactor” (PHILLIPS PETROLEUM COMPANY, priority 1983, dated 1984).

Biological target: T1, horse liver alcohol dehydrogenase (Equus caballus, UniProt P00327)
T1 construct: 0.5 mL horse liver-alcohol dehydrogenase solution (Sigma-1 mg/mL); purchased Sigma; host or cells: horse liver
Assay: Dissolved oxygen decrease on adding alcohol substrates to the cofactor regeneration system (NAD, HL-ADH, acetaldehyde, alcohol oxidase)
Type: biochemical
Conditions: relative decrease in dissolved oxygen level upon addition of 0.1 mL of 2.5 vol % solution of the alcohol; phosphate buffer pH 8
Experimental: The following reagents were admixed in a small beaker: • 2.7 mL aerated potassium phosphate buffer (0.05 M; pH 8) • 0.01 mL of NAD solution (10 mg/mL or 0.025 M) • 0.5 mL horse liver-alcohol dehydrogenase solution (Sigma-1 mg/mL) • 0.1 mL of 1 M acetaldehyde • 0.1 mL of saturated alcohol oxidase (~ 10 mg/mL, prepared as described in example I)
A dissolved oxygen probe, connected to an electronic signal differentiator, was placed in the above prepared solution. The relative decrease in dissolved oxygen level (ADO) was monitored upon addition of 0.1 mL of 2.5 vol % solutions of several alcohols: […]

T1 sequence (P00327 2-375 limits assumed): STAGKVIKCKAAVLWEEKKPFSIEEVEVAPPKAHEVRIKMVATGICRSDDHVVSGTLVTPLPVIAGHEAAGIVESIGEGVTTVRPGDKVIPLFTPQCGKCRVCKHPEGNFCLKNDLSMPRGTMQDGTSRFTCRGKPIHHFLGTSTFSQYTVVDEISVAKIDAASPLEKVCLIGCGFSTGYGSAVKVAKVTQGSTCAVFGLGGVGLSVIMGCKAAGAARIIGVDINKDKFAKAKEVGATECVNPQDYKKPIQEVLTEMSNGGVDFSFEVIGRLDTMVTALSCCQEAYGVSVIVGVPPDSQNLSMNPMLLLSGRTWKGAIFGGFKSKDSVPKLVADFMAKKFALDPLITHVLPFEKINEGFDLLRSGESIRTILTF

## OCCCCO [1,4-butanediol]
  ΔDO: Yes

## CCC(C)O (stereo not shown) [2-butanol]
  ΔDO: Yes

## OC=CCCO [3-buten-1,4-diol]
  ΔDO: Yes

## C=CC(C)O (stereo not shown) [3-buten-2-ol]
  ΔDO: Yes

## C=CCCCCCCCCO [9-decen-1-ol]
  ΔDO: Yes

## OC1CCCCC1 [cyclohexanol]
  ΔDO: Yes

## CC(C)(C)O [tertiary butanol]
  ΔDO: No
